According to patent US12529692B2, “Live cell imaging dynamic BH3 profiling” (Dana-Farber Cancer Institute, Inc., priority 2019, dated 2026):

Legend:
Format in all cases: cell-based
MMTV-PyMT-T1 cells = assay: LCI-DBP on MMTV breast cancer PDX model; conditions: MMTV-PyMT-T1 cells treated overnight, then BIM BH3 peptide 10 μM final; imaged 0-120 minutes; compared to undrugged (DMSO) cells; FIG. 3A
Protocol: The plates with cells were stained with 10 μL per well of LCI-Staining Solution for 20 minutes at 37° C. in a 3307 Steri-Cult Incubator, Class 100 HEP. An EL406™ Combination Microplate Washer Dispenser was then used to aspirate the volume in the wells to 10 μL. The plates with cells were washed three times with LCI-Wash buffer to a final residual volume of 10 μL per well using the EL406™ Combination Microplate Washer Dispenser. The plate was then placed on an ImageXpress® Micro 4 High Content Screening System with the required settings, taking an image every two minutes. After two images, 10 μL of the selected LCI-DBP BIM peptide buffer(s) were added to the wells. The plate was then imaged for at most 2 hours.
As depicted, cells are plated on collagen-coated plates and allowed to incubate for 16-24 hours in the presence of a test agent. […] After all images are acquired, image analysis software is used to quantify differences in TMRE release between drug-treated cells and vehicle-treated cells. […]
Cells were imaged by live single-cell imaging at 0 minutes, 42 minutes, 50 minutes, 66 minutes, and 120 minutes following BH3 peptide addition (FIG. 3A). Nuclear staining was detected as a blue emission from Hoechst 33342, and mitochondrial transmembrane potential staining was detected as a […] emission from TMRE.

[1] = tested on: Pancreatic 8902 (Panc8902) cell line; assay: Live cell imaging dynamic BH3 profiling (LCI-DBP) on Pancreatic 8902 cell line
Protocol: Cells were imaged by live single-cell imaging at 18 minutes, 40 minutes, 48 minutes, 58 minutes, and 120 minutes following BH3 peptide addition (FIG. 2A). Nuclear staining was detected as a blue emission from Hoechst 33342, and mitochondrial transmembrane potential staining was detected as a green emission from TMRE. […]

cells of a sample = assay: LCI-DBP example workflow (FIG. 1A), delta priming compared across treatments; conditions: bar graph of FIG. 1A comparing different treatments; cells not specified
Protocol: An example workflow of live cell imaging dynamic BH3 profiling (LCI-DBP) is depicted in FIG. 1A. As shown, in some embodiments, cells are plated in a well (e.g., a well of a multi-well plate). In some embodiments, the plated cells are contacted with a test agent or a control solution (e.g., a vehicle solution used with the test agent, such as water, buffer, or a solvent), and the test agent is incubated with the cells for a treatment period. In some embodiments, the treated cells are stained with desired markers for imaging (e.g., nuclear and/or mitochondrial markers). In some embodiments, the cells are then treated with a reagent for measuring MOMP, such as a potentiometric dye. In some embodiments, the stained and treated cells are then contacted with a BH3 peptide. Cells treated with BH3 peptide are imaged by live cell imaging to detect the reagent for measuring MOMP. […] In some embodiments, the loss in emission from the potentiometric dye is evaluated for cells treated with the test agent as compared with cells that were not treated with the test agent. In some embodiments, the difference in emission between treated and untreated cells is determined to obtain a parameter referred to herein as delta priming. Image analysis software, or any suitable algorithm known to one skilled in the art, may be used to determine the difference in emission, or it may be determined manually. […]

## CO[C@H]1/C=C\C=C(/C)C(=O)NC2=CC(=O)C(NCCN(C)C)=C(C[C@@H](C)C[C@H](OC)[C@H](O)[C@@H](C)/C=C(\C)[C@@H]1OC(N)=O)C2=O [17-DMAG]
MMTV-PyMT-T1 cells
  loss in mitochondrial potential, detected as loss in TMRE emission over time: observable accelerated loss in mitochondrial potential

## Cc1c(-c2ccc(N3CCc4cccc(C(=O)Nc5nc6ccccc6s5)c4C3)nc2C(=O)O)cnn1CC12CC3CC(CC(C3)C1)C2 [A1331852]
[1]; Panc8902 cells treated overnight, then BIM BH3 peptide 10 μM final, imaged 18-120 minutes, compared to undrugged (DMSO) cells, FIG. 2A
  loss in mitochondrial potential, detected as loss in TMRE emission over time: observable accelerated loss in mitochondrial potential

## CC1(C)CCC(c2ccc(Cl)cc2)=C(CN2CCN(c3ccc(C(=O)NS(=O)(=O)c4ccc(N[C@H](CCN5CCOCC5)CSc5ccccc5)c(S(=O)(=O)C(F)(F)F)c4)cc3)CC2)C1 [Navitoclax]
[1]; Panc8902 cells, drug 1 μM overnight, BIM BH3 peptide 1 μM final, monitored over 120 minutes, versus DMSO, FIG. 5C
  half-time of TMRE loss in single cells (measurement of apoptotic priming): decrease in the half-time of TMRE loss
Cells of a sample
  delta priming: highest value for delta priming
